Measurements published in ChEMBL document CHEMBL4028893, “Discovery and Optimization of Potent, Cell-Active Pyrazole-Based Inhibitors of Lactate Dehydrogenase (LDH)” (J Med Chem, 2017).
Active and inactive are the calls of the source. The calls are words filed in the database; no cut-off is given here.

Tests used:
[1] = target: T1, L-lactate dehydrogenase A chain (Homo sapiens, UniProt P00338)
Description: Inhibition of human liver LDHA using sodium pyruvate as substrate after 5 mins in presence of NAPDH and EDTA by diaphorase/resazurin based fluorescence assay

L-lactate dehydrogenase [2] = target: T2, L-lactate dehydrogenase (Homo sapiens, UniProt V9HWB9); test: Inhibition of LDH in human MIAPaCa2 cells assessed as reduction in lactate production preincubated for 2 hrs measured after 30 mins by high throughput fluorescence assay; type: cell-based
L-lactate dehydrogenase [3] = target: T2, L-lactate dehydrogenase; test: Inhibition of LDH in human A673 cells assessed as reduction in lactate production preincubated for 2 hrs measured after 30 mins by high throughput fluorescence assay; type: cell-based
[4] = target: T1, L-lactate dehydrogenase A chain; remark: listed apart in the source
Description: Inhibition of human liver LDHA using sodium pyruvate as substrate after 5 mins in presence of NAPDH and in absence of EDTA by diaphorase/resazurin based fluorescence assay

[5] = Inhibition of pig heart MDH using malic acid as substrate preincubated for 10 mins followed by substrate addition measured up to 5 mins by resorufin-based fluorescence assay; parameters: species or system Sus scrofa
[6] = Drug level in human A673 cells by LC-MS/MS analysis; type: ADME, cell-based
[7] = Drug level in human MIAPaCa2 cells by LC-MS/MS analysis; type: ADME, cell-based; conditions: mia paca-2
[8] = target: Isocitrate dehydrogenase [NADP] cytoplasmic (Homo sapiens, UniProt O75874); test: Inhibition of wild type IDH1 (unknown origin) using isocitrate as substrate preincubated for 30 mins followed by substrate addition in presence of NADP+ measured up to 5 mins by resorufin-based fluorescence assay
Sequence of Isocitrate dehydrogenase [NADP] cytoplasmic (O75874 whole entry): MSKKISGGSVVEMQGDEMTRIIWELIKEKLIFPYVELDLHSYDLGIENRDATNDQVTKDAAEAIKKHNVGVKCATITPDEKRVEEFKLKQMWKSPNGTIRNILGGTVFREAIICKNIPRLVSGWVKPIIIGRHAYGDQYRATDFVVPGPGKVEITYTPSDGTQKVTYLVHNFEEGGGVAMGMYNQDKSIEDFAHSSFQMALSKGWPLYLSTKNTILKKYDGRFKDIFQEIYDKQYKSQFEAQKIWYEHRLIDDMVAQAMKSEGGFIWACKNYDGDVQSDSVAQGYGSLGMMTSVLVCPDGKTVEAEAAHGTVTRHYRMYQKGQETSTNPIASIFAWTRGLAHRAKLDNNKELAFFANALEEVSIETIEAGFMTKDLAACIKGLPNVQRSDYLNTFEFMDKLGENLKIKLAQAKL

| SMILES | IC50 [1] | inhibition (L-lactate dehydrogenase [2]) | inhibition (L-lactate dehydrogenase [3]) | IC50 [4] | other results |
| --- | --- | --- | --- | --- | --- |
| NS(=O)(=O)N1CCN(Cc2cn(-c3nc(C(=O)O)cs3)nc2-c2ccccc2)CC1 | 17.3 µM | – | – | – | – |
| O=C(O)c1csc(-n2nc(-c3ccc(F)c(F)c3)cc2O)n1 | > 57 µM | inactive | inactive | 0.15 µM | – |
| NC(=O)c1ccc(Cc2c(-c3cccc(-c4ccccc4)c3)nn(-c3nc(C(=O)O)cs3)c2O)cc1 | > 57 µM | – | – | – | – |
| Cc1c(Cc2ccc(S(N)(=O)=O)cc2)c(-c2ccccc2)nn1-c1nc(C(=O)O)cs1 | 0.042 µM | – | – | – | – |
| O=C(O)c1csc(-n2nc(-c3cccc(OC(F)(F)F)c3)cc2O)n1 | > 57 µM | inactive | inactive | 0.299 µM | – |
| COc1ccc(-c2cc(O)n(-c3nc(C(=O)O)cs3)n2)cc1 | > 57 µM | inactive | inactive | 0.229 µM | – |
| NS(=O)(=O)c1ccc(NCc2cn(-c3nc(C(=O)O)cs3)nc2-c2ccccc2)cc1 | > 57 µM | – | – | – | – |
| O=C(O)c1csc(-n2nc(-c3cccc(C(F)(F)F)c3)cc2O)n1 | > 57 µM | inactive | inactive | 0.189 µM | – |
| O=C(O)c1csc(-n2nc(-c3ccc(F)cc3F)cc2O)n1 | > 57 µM | inactive | inactive | 0.084 µM | – |
| NS(=O)(=O)c1ccc(Oc2c(-c3cccc(-c4ccccc4)c3)nn(-c3nc(C(=O)O)cs3)c2C2CC2)cc1 | – | – | – | – | IC50 [5]: > 57 µM; Drug uptake [6]: Active; Drug uptake [7]: Active |
| O=C(O)c1csc(-n2nc(-c3cc(F)cc(F)c3)cc2O)n1 | > 57 µM | inactive | inactive | 0.11 µM | – |
| NS(=O)(=O)c1ccc(C(=O)Nc2cn(-c3nc(C(=O)O)cs3)nc2-c2ccccc2)cc1 | > 57 µM | – | – | – | – |
| NS(=O)(=O)c1cccc(Cc2c(-c3ccc(F)c(F)c3)nn(-c3nc(C(=O)O)cs3)c2O)c1 | > 57 µM | – | – | – | – |
| O=C(O)c1csc(-n2nc(-c3ccncc3)cc2O)n1 | > 57 µM | inactive | inactive | 0.669 µM | – |
| O=C(O)c1csc(-n2nc(C3CCCCC3)cc2O)n1 | > 57 µM | inactive | inactive | 1.1 µM | – |
| O=C(O)c1csc(-n2nc(-c3ccccc3Cl)cc2C(F)(F)F)n1 | > 57 µM | inactive | inactive | > 57 µM | – |
| O=C(O)c1csc(-n2nc(-c3ccccn3)cc2O)n1 | > 57 µM | inactive | inactive | 1.02 µM | – |
| NS(=O)(=O)c1ccc(Oc2c(-c3ccccc3)nn(-c3nc(C(=O)O)cs3)c2C2CC2)cc1 | 0.065 µM | – | – | – | – |
| N#Cc1c(Cc2ccc(S(N)(=O)=O)cc2)c(-c2ccccc2)nn1-c1nc(C(=O)O)cs1 | 0.115 µM | – | – | – | – |
| O=C(O)c1csc(-n2nc(-c3ccccc3F)cc2O)n1 | > 57 µM | inactive | inactive | 0.134 µM | – |
| O=C(O)c1csc(-n2nc(-c3cccc(-c4ccccc4)c3)cc2O)n1 | > 57 µM | inactive | inactive | 0.266 µM | – |
| NS(=O)(=O)c1ccc(Cc2cn(-c3nc(C(O)C(F)(F)F)cs3)nc2-c2ccccc2)cc1 (stereo not given) | > 57 µM | – | – | – | – |
| NS(=O)(=O)c1ccc(Cc2c(-c3ccccc3)nn(-c3nc(CO)cs3)c2C(F)(F)F)cc1 | 25.5 µM | – | – | – | – |
| NS(=O)(=O)c1ccc(Cc2c(-c3cccc(-c4ccccc4F)c3)nn(-c3nc(C(=O)O)cs3)c2O)cc1 | – | – | – | – | IC50 [8]: > 57 µM; Drug uptake [6]: Active; Drug uptake [7]: Active |

| SMILES | IC50 [1] | inhibition (L-lactate dehydrogenase [2]) | inhibition (L-lactate dehydrogenase [3]) | IC50 [4] | other results |
| --- | --- | --- | --- | --- | --- |
| CC(C)c1cc(-c2ccccc2)nn1-c1nc(C(=O)O)cs1 | > 57 µM | inactive | inactive | > 57 µM | – |
| O=C(O)c1csc(-n2nc(-c3cccc(Cl)c3)cc2O)n1 | > 57 µM | inactive | inactive | 0.168 µM | – |
| O=C(O)c1csc(-n2nc(-c3cccc(-c4ccccc4F)c3)cc2O)n1 | > 57 µM | inactive | inactive | 0.095 µM | – |
| O=C(O)c1ccc(Cc2c(-c3cccc(-c4ccccc4)c3)nn(-c3nc(C(=O)O)cs3)c2O)cc1 | 33.8 µM | – | – | – | – |
| CC(=O)Nc1cc(-c2ccccc2)nn1-c1nc(C(=O)O)cs1 | > 57 µM | inactive | inactive | 9.57 µM | – |
| O=C(O)c1csc(-n2nc(-c3cccc(Cl)c3)cc2C(F)(F)F)n1 | > 57 µM | inactive | inactive | > 57 µM | – |
| O=C(O)c1csc(-n2nc(-c3ccccc3)cc2O)n1 | > 57 µM | inactive | inactive | 0.144 µM | – |
| CCOC(=O)c1csc(-n2nc(-c3cccc(-c4ccccc4)c3)c(Cc3ccc(S(N)(=O)=O)cc3)c2C(F)(F)F)n1 | > 57 µM | – | – | – | – |
| O=C(O)c1csc(-n2nc(-c3cccc4ccccc34)cc2O)n1 | > 57 µM | inactive | inactive | 0.213 µM | – |
| CNS(=O)(=O)c1ccc(Cc2c(-c3cccc(-c4ccccc4)c3)nn(-c3nc(C(=O)O)cs3)c2O)cc1 | > 57 µM | – | – | – | – |
| O=C(O)c1csc(-n2nc(-c3ccc(F)cc3)cc2C(F)(F)F)n1 | – | inactive | inactive | – | – |
| O=C(O)c1csc(-n2nc(-c3ccc(Cl)c(Cl)c3)cc2O)n1 | > 57 µM | inactive | inactive | 0.106 µM | – |
| NS(=O)(=O)c1ccc(Cc2c(-c3cccc(-c4ccccc4)c3)nn(-c3nc(-c4nnn[nH]4)cs3)c2O)cc1 | > 57 µM | – | – | – | – |
| NS(=O)(=O)c1ccc(Oc2cn(-c3nc(C(=O)O)cs3)nc2-c2ccccc2)cc1 | 0.124 µM | – | – | – | – |
| NC(=O)c1csc(-n2nc(-c3cccc(-c4ccccc4)c3)c(Cc3ccc(S(N)(=O)=O)cc3)c2O)n1 | 27.7 µM | – | – | – | – |
| O=C(O)c1csc(-n2nc(-c3ccc(Cl)cc3)cc2C(F)(F)F)n1 | 27.7 µM | inactive | inactive | 26.6 µM | – |
| NS(=O)(=O)c1ccc(Cc2c(-c3ccccc3)nn(-c3nc(C(=O)O)cs3)c2-c2ccccc2)cc1 | 0.139 µM | – | – | – | – |
| Nc1cc(-c2ccccc2)nn1-c1nc(C(=O)O)cs1 | > 57 µM | inactive | inactive | 26.7 µM | – |
| O=C(O)c1csc(-n2nc(-c3ccccc3)cc2C(F)F)n1 | > 57 µM | inactive | inactive | > 57 µM | – |
| O=C(O)c1csc(-n2nc(-c3ccc(F)cc3)cc2O)n1 | > 57 µM | inactive | inactive | 0.095 µM | – |
| O=C(O)c1csc(-n2nc(-c3ccc(F)c(F)c3)c(Cc3ccccc3)c2O)n1 | > 57 µM | – | – | – | – |
| O=C(O)c1csc(-n2nc(-c3cccc(F)c3)cc2O)n1 | > 57 µM | inactive | inactive | 0.162 µM | – |
| Cc1cc(-c2ccccc2)nn1-c1nc(C(=O)O)cs1 | > 57 µM | inactive | inactive | 15.4 µM | – |
